Source: patent US10759785B2, “Compounds” (ENTERPRISE THERAPEUTICS LIMITED, priority 2016, dated 2020)

Assays:
Type in all cases: in vitro ADME
[1] = Hepatic stability (human cryopreserved hepatocytes); conditions: cryopreserved hepatocytes, pH 7.4, 1 μM test compound, 1×10^6 cells/mL, 37° C., read-out: Averages. Hep Half Life Human
Description: (§1) Example 29—Hepatic Stability
(§2) Cryopreserved hepatocytes (rat and human) were obtained from Bioreclamation. Test compound stock solutions in DMSO (10 mM) were diluted with DMSO to 4 mM. Further dilution was completed to achieve a 100 μM stock (5 μL of 4 mM in 195 μL of 50:50 DMSO:hepatocyte buffer). Final test compound concentration in incubation was 1 μM. The following probe substrates were used: testosterone and carbamazepine at a final incubation concentration of 1 μM. Hepatocyte buffer was prepared (Williams E media containing phenol red and Glutamax™, 15 mM HEPES, warmed to 37° C., pH7.4 with NaOH). Cells were removed from liquid nitrogen, thawed in a waterbath, decanted into 50 mL of pre-warmed Cryopreserved Hepatocyte Recovery Media (LifeTechnologies) and centrifuged. Supernatant fraction was removed, cells were re-suspended in hepatocyte buffer and counted by trypan blue exclusion. Cell viability of >80% was required for all assays. Cells were re-suspended to 1×10^6/mL and 198 μL cell suspension added to each 96-well. 2 μL of 100 μM compound stock solution was added to relevant wells to initiate the incubation. A no cell control and two replicates of each test compound was included in every assay. Cells were incubated at 37° C., on a shaker set at 300 rpm. At each timepoint (0, 15, 30, 45, 60, 90 min) 20 μL of sample was removed from the 96-well and added to 80 μL of quench solution (acetonitrile containing 0.1% formic acid and imipramine/labetalol, 200 nM). Samples were diluted 1:1 with water using the Janus Robot and analysed by LC-MS/MS.

[2] = Hepatic stability (rat cryopreserved hepatocytes); conditions: pH 7.4, 1 μM test compound, 1×10^6 cells/mL, 37° C., read-out: Averages. Hep Half Life Rat
Description: as §1, §2

[3] = Microsomal stability (human microsomes); conditions: pH 7.4, 1 μM test compound, 0.5 mg/mL protein, 1 mM NADPH, 37° C., read-out: Averages. Mic Half Life Human
Description: Example 28—Microsomal Stability
Microsomes (rat and human) were obtained from Bioreclamation. Test compound stock solutions in DMSO (10 mM) were diluted with DMSO to 2 mM. Further dilution was completed to achieve a 100 μM stock (final concentrations; 91.5% Acetonitrile: 8.5% DMSO). Final test compound concentration in incubation was 1 μM (<0.1% DMSO). The following probe substrates were used: verapamil, propranolol, metoprolol and phenacetin (rat) at a final incubation concentration of 1 μM. Assay buffer—Solution 1: 17.4 g potassium phosphate dibasic anhydrous (K2HPO4, 0.1 M) dissolved in 1 L deionised water. Solution 2: 13.6 g potassium phosphate monobasic anhydrous (KH2PO4, 0.1 M) dissolved in 1 L deionised water. Potassium phosphate solutions 1 and 2 were combined to form a pH 7.42 solution at 37° C. pH 7.4 with 2 mM magnesium chloride. NADPH (10 mM)—diluted in deionised water. Frozen microsomes were thawed at 37° C. Microsomes were diluted in assay buffer to achieve a final protein concentration of 0.5 mg/mL and 1 mM NADPH. The following procedure was completed on a Perkin Elmer Janus robotic platform in 96 well format: The microsomal incubation plate was transferred to a heater shaker at 300 rpm and solution heated to 37° C. for 10 min pre-warm. A no co-factor control at 0 and 45 min and one replicates of each test compound was included in every assay. Microsomes were incubated at 37° C., on a shaker set at 300 rpm throughout the assay. At each timepoint (0, 5, 15, 30, 45 min) 50 μL of sample was removed from the 96-well and added to 200 μL of quench solution (acetonitrile containing 0.1% formic acid and imipramine/labetalol, 200 nM). Samples were diluted 1:1 with water using the Janus Robot and analysed by LC-MS/MS.

Row | half-life at 1 μM [1] [h] | half-life at 1 μM [2] [h] | half-life at 1 μM [3] [h] | Structure (SMILES)
1 | 1.12 | 1.5 | > 2.3 | CCn1c(CNC(=O)c2nc(Br)cnc2N)[n+](CC)c2ccc(-c3cnn(C4CCN(C(=N)N)CC4)c3)cc21.O=CO.O=C[O-] [Example 22, 2-{[(3-amino-6-bromopyrazin-2-yl)formamido]methyl}-6-[1-(1-carbamimidoylpiperidin-4-yl)-1H-pyrazol-4-yl]-1,3-diethyl-1H-1,3-benzodiazol-3-ium formic acid formate]
2 | 1.1 | 0.417 | 1.53 | CCn1c(CNC(=O)c2nc(Br)cnc2N)[n+](CC)c2ccc(-c3cnn(C4CCNCC4)c3)cc21.Cl.[I-] [Example 21, 2-{[(3-amino-6-bromopyrazin-2-yl)formamido]methyl}-1,3-diethyl-6-[1-(piperidin-4-yl)-1H-pyrazol-4-yl]-1H-1,3-benzodiazol-3-ium hydrochloride iodide]

Row | Structure (SMILES) | half-life at 1 μM [1] [h] | half-life at 1 μM [2] [h] | half-life at 1 μM [3] [h]
3 | CCn1c(CNC(=O)c2nc(Br)cnc2N)[n+](CC)c2ccc(-c3cnn(C4CCN(C(=O)OC(C)(C)C)CC4)c3)cc21.[I-] [Example 20, 2-{[(3-amino-6-bromopyrazin-2-yl)formamido]methyl}-6-(1-{1-[(tert-butoxy)carbonyl]piperidin-4-yl}-1H-pyrazol-4-yl)-1,3-diethyl-1H-1,3-benzodiazol-3-ium iodide] | 1.17 | 0.333 | > 2.3
